The record followed here is patent US20080076750A1, “Azetidinone Derivatives and Methods of Use Thereof” (priority 2006, published 2008).

Experiment [1] deals with T1, TRPV1 (Homo sapiens, UniProt Q8NER1).
T1 construct: expressed in transfected cells; host or cells: HEK293-Tet-OFF
As to the kind of experiment: TRPV1 Screening Assay (FLIPR). The following applies: HEK293-TetOFF-TRPV1, capsaicin (50 nM final), read-out: VR1 flipr CAPSAICIN IC50. The experiment is classed as cell-based. From the text:
• 1) Cell line: HEK293-Tet^OFF-TRPV1 • 2) Media: MEM (Invitrogen) • 3) 10% Tet-FBS (Clontech #8630-1) • 4) Fungizone (Gibco #15290-018 (100×)) • 5) Penn/Strep (Gibco #15140-122 (100×)) • 6) Geneticin (Gibco #10131-027 (100×)) • 7) Hygromycin (Clontech #8057-1) • 8) Doxycycline (Clontech #8634-1) • 9) Trypsin/EDTA (Gibco #25200-056) • 10) 100 mm cell culture plates (Falcon #3003) • 11) 96-well poly-D-lysine plates (Fisher #08-774-256) • 12) Hank's Balanced Salt Solution (HBSS) (GIBCO #14025-092) • 13) HEPES Buffer (GIBCO #15630-080) • 14) 30% BSA (Research Organics #1334A) • 15) Probenecid (Sigma P-8761) • 16) Fluo-4, AM (50 μg) (Molecular robes F-23917) • 17) Pluronic F-127 20% (Molecular Probes P-3000). • 18) capsazepine (Sigma C-191) • 19) capsaicin (Sigma M-2028) • 20) compound plates (NUNC #442587) • 21) black pipet tips 96-well FLIPR (Robbins Scientific 1043-24-0) • 22) Additional reagents available from Fisher: methanol, DMSO, NaOH Reagent Preparation: 1) Cells: HEK293-Tet^OFF-TRPV11
• and Doxycycline 2.5 μg/mL final (from a 1000× stock in PBS) • Cells must be fed and/or split every 2-3 days (to maintain transcriptional repression with Doxycycline). • Must be split no more than 1:5 (50-75% confluency) to maintain growth and viability. • Grown on regular tissue culture plates (e.g. Falcon 3003-100 mm) • SpliT-cells via Trypsin/EDTA: incubate with trypsin at room temperature no longer than 5 min (HEK293 cells have a tendency to ball up if over trypsinized). • Two days prior to assay, the cells are split into 96-well plates in cell media in the absence of doxycycline at a concentration of 40,000 cells/well in a volume of 200 μL, 2) FLIPR buffer is prepared fresh:
Add 5 mL of Probenecid Solution, prepared as follows: 710 mg of probenecid (Sigma P-8761) is solubilized in 5 mL of 1 N NaOH, 5 mL of above buffer s added for final volume of 10 mL (of which 5 mL goes back into FLIPR buffer)
Combine 42 μL of dye mixture with 11 mL of FLIPR buffer/96-well plate.
Stock solution of 0.1 M capsaicin is prepared in MeOH (50 mg+1.6 mL MeOH). Store 50 μL aliquots at −80° C.
For assay: • a) Dilute stock by adding 0.8 μL into 1 mL of MeOH (final=80 μM). • b) Add 50 μL of diluted stock to 20 mL of FLIPR buffer (final=0.2 μM) • c) Agonist solution is added 150 μL/well to 96-well plate. • d) Final agonist concentration on cells will be 50 nM. […] Laser is adjusted upwards for an average signal≧10,000/well and less than 10% variability. 7) Compound addition conditions are as follows: • FLIPR setup (dual sequence parameters): • Sequence 1: • First interval 1 sec/60 counts • Second interval 6 sec/50 counts • Fluid addition=50 μL • Pipettor=110 μL • Dispense Speed=30 μL/sec • Sequence 2: • Second interval 1 sec/60 counts • Second interval 6 sec/40 counts • Fluid addition=50 μL • Pipettor height=140 μL • Dispense Speed=50 μL/sec Data Analysis:
1) Data from both additions is reported as Max-Min for each well

The target in experiment [2] is T1, TRPV1. The experiment in a line: TRPV1 Screening Assay (FLIPR). The experiment is classed as cell-based. To be noted: HEK293-TetOFF-TRPV1, PMA, read-out: VR1 flipr PMA IC50.
In a further experiment the target is T2, human NPC1L1 (Homo sapiens, UniProt Q9UHC9).
T2 construct: expressed in transfected cells; host or cells: HEK-293 (geneticin selection)
T2 sequence (Q9UHC9 22-1359): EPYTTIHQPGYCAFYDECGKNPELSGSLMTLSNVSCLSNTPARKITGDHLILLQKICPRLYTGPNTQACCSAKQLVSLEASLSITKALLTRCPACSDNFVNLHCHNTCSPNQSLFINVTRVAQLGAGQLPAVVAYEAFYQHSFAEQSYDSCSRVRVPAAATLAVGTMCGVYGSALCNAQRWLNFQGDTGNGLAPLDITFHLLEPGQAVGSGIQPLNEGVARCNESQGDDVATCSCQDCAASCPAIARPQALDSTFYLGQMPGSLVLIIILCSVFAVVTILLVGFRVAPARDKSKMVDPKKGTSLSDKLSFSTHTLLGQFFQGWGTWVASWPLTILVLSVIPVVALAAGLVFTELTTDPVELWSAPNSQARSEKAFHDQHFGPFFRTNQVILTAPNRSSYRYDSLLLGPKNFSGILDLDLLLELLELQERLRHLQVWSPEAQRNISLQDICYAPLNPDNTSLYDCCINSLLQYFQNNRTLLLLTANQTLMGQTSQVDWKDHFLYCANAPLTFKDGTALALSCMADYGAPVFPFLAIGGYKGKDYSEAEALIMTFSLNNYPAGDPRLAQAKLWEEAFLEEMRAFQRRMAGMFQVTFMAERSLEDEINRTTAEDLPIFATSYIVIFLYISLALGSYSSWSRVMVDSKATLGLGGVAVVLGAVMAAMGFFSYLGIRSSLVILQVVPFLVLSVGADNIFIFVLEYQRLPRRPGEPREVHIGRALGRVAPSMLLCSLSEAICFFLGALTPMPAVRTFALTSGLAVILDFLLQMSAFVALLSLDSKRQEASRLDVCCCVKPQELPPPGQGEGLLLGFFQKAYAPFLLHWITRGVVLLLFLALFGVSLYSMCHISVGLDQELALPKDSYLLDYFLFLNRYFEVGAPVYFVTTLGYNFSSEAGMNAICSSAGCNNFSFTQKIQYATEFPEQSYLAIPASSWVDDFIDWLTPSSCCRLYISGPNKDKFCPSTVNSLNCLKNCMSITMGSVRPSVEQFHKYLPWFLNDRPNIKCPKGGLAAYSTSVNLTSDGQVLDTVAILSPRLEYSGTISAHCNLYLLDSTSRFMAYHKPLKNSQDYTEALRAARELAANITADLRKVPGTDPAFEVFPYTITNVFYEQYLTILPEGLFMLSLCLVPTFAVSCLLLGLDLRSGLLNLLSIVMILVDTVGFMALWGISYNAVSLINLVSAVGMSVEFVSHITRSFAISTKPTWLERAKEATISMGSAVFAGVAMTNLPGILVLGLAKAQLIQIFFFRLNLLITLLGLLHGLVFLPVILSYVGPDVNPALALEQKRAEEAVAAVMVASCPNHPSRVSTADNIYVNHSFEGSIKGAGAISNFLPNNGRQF
As to the kind of experiment: NPC1L1 Binding Assay, human. To be noted: HEK-293 cells expressing human NPC1L1; competition with 250 nM BODIPY-labeled glucuronidated ezetimibe, 4 h at 37° C. How it is done: HEK-293 cells expressing human NPC1L1 were plated into 384-well black/clear plates (BD Biosciences, Bedford Mass.) for binding experiments the following day. Cell growth media (DMEM, 10% fetal calf serum, 1 mg/mL geneticin, 100 Units/mL penicillin) was aspirated. Cell growth media ([…]) containing 250 nM BODIPY-labeled glucuronidated ezetimibe was added to each well. Cell growth media ([…] containing the indicated concentration of compound was then added to the wells unlabeled glucuronidated ezetimibe […]) was used to determine nonspecific binding. The binding reaction was allowed to proceed for 4 h at 37° C. Subsequently the cell growth media was aspired and the cells washed once with PBS. The remaining fluorescent labeled glucuronidated ezetimibe bound to the cells was quantified using a FlexStation plate reader (Molecular Devices, Sunnyvale Calif.) to measure fluorescence intensity. Ki values were determined from competition binding curves (n=4 for each point) using Prism and Activity Base software.

The next experiment addresses NPC1L1 (Rattus norvegicus, UniProt Q6T3U3). As to the kind of experiment: NPC1L1 Binding Assay, rat. To be noted: competition with BODIPY-labeled glucuronidated ezetimibe.

Each structure is given as a SMILES string. Like-named read-outs stand apart in the source and are kept apart here.

T1 sequence (Q8NER1 whole entry, species assumed): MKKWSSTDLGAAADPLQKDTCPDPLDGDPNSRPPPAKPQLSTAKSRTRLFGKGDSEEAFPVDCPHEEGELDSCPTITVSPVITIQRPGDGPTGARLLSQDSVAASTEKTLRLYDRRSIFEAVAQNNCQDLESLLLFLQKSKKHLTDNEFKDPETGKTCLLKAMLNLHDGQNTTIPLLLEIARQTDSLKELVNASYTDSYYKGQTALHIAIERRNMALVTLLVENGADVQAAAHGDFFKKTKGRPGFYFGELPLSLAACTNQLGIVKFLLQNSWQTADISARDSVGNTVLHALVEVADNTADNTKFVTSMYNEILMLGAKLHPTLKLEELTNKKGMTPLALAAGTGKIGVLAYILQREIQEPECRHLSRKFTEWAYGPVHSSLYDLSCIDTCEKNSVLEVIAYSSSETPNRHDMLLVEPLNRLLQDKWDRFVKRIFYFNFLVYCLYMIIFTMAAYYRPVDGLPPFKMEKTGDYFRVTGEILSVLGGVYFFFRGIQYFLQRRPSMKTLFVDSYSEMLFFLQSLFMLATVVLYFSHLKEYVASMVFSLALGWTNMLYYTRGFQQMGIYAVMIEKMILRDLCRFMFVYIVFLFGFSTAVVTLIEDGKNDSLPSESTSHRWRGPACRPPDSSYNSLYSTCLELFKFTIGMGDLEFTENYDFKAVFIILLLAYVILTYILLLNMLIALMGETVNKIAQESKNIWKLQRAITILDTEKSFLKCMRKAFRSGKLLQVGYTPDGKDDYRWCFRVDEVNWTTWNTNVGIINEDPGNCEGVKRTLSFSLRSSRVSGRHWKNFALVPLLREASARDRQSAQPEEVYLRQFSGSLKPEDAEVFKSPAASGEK

Turning to `O=C(Nc1ccc(C(F)(F)F)cc1)N1CCC2(CC1)C(=O)N(c1ccccc1)C2c1ccccn1` (stereo not drawn), the IC50 at TRPV1 [1] and at TRPV1 [2] was 33 nM each time.

As for `CC(C)c1ccc(NC(=O)N2CCC3(CC2)C(=O)N(c2ccccc2)C3c2ccccn2)cc1` (stereo not drawn), the results for the IC50 on TRPV1 [1] and at TRPV1 [2] were 70 nM and 81 nM, respectively.

Regarding `O=C(Nc1ccc(Oc2ccccc2)cc1)N1CCC2(CC1)C(=O)N(c1ccccc1)C2c1ccccn1` (stereo not drawn), the IC50 on TRPV1 [1] was 259 nM; on TRPV1 [2], 140 nM.

For the compound `CC(C)c1ccc(NC(=O)N2CCC3(CC2)C(=O)N(c2cncnc2)C3c2ccccn2)cc1` (stereo not drawn), the IC50 came to 301 nM on TRPV1 [1] and 252 nM at TRPV1 [2].

Consider `O=C(Nc1c(F)cccc1F)N1CCC2(CC1)C(=O)N(c1ccccc1)C2c1ccccc1` (stereo not drawn), for which the Ki at human NPC1L1 stood at 9.87 µM; at NPC1L1 it was 6.63 µM.

With `O=C(Nc1cccc(Cl)c1Cl)N1CCC2(CC1)C(=O)N(c1ccccc1)C2c1ccccc1` (stereo not drawn), the Ki on human NPC1L1 was determined as 6.62 µM; at NPC1L1, 4.95 µM.

With `Cc1ccc(C)c(NC(=O)N2CCC3(CC2)C(=O)N(c2ccccc2)C3c2ccccc2)c1` (stereo not drawn), the Ki on human NPC1L1 came to 3.9 µM; on NPC1L1, 3.5 µM.

`CC(C)c1ccc(NC(=O)N2CCC3(CC2)C(=O)N(c2ccccc2)C3c2ccccc2)cc1` (stereo not drawn) [drawing 426]: the IC50 on TRPV1 [1] turned out to be 81 nM; at TRPV1 [2] it was 43 nM.

Consider `CC(C)c1ccc(NC(=O)N2CCC3(CC2)C(=O)N(c2ccccc2)C3c2ccccc2)cc1` (stereo not drawn) [drawing 427], for which the concentration for half-maximal inhibition (IC50) worked out at 138 nM on TRPV1 [1] and 99 nM on TRPV1 [2].

On to `Cc1cccc(Cl)c1NC(=O)N1CCC2(CC1)C(=O)N(c1ccccc1)C2c1ccccc1` (stereo not drawn) [drawing 434], for which the Ki came out at 2.32 µM at human NPC1L1 and 1.17 µM at NPC1L1.

Consider `Cc1c(Cl)cccc1NC(=O)N1CCC2(CC1)C(=O)N(c1ccccc1)C2c1ccccc1` (stereo not drawn) [drawing 435], for which the Ki at human NPC1L1 turned out to be 3.77 µM; at NPC1L1, 3.62 µM.

As for `Cc1cccc(Cl)c1NC(=O)N1CCC2(CC1)C(=O)N(c1ccccc1)C2c1ccccc1` (stereo not drawn) [drawing 443], the figures for the Ki at human NPC1L1 and at NPC1L1 were 1.01 µM and 1.06 µM, respectively.

One may read the IC50 as the concentration that gives 50% inhibition. The Ki is the equilibrium dissociation constant of an inhibitor or competing ligand from its target.
